# “And” between values parts separate entries of the source, which are not always exact repeats. Identical values can stand only once. Counter-ions that a name gives are not always drawn. Like-named read-outs stand apart in the source and are kept apart here.
# What was measured:
# [1] = Stability (hydrolysis) of prodrug in fresh serum (rat); conditions: for Iab / IVa Formed: Rat Serum; for Ibb: Ibb in fresh rat serum, 37° C., n = 2
# Description: (§3) The stability of Iab was studied in fresh blood and serum from rat, dog, monkey and human (n=2). The blood was collected in vacutainers containing K2EDTA (Becton Dickinson, Franklin Lakes, N.J.). The serum was collected in vacutainers containing no anticoagulant. Iab was incubated at a starting concentration of approximately 10 μM for 60-90 min at 37° C. Serial samples were taken at the pre-determined times. Aliquots of blood samples (200 μL) were first mixed with 100 μL of water followed by 400 μL of acetonitrile. The serum samples (50 μL) were added into microtainers containing K2EDTA (Becton Dickinson, Franklin Lakes, N.J.) followed by the addition of 100 μL of acetonitrile. The supernatant was analyzed for both Iab and IVa by LC/MS/MS. The stability of Ibb was studied in fresh blood and serum from rat, dog, monkey and human (n=2). The blood was collected in vacutainers containing K2EDTA (Becton Dickinson, Franklin Lakes, N.J.). The serum was collected in vacutainers containing no anticoagulant. Ibb was incubated at a starting concentration of approximately 15 μM for 90 min at 37° C. Serial samples were taken at the pre-determined times. Aliquots of blood samples (200 μL) were first mixed with 100 μL of water followed by 400 μL of acetonitrile. The serum samples (50 μL) were added into microtainers containing K2EDTA (Becton Dickinson, Franklin Lakes, N.J.) followed by the addition of 100 μL of acetonitrile. […] The stability of Icb was studied in fresh blood and serum from rat, dog, monkey and human (n=2). The blood was collected in vacutainers containing K2EDTA (Becton Dickinson, Franklin Lakes, N.J.). The serum was collected in vacutainers containing no anticoagulant. Icb was incubated at a starting concentration of approximately 10 μM for 90 min at 37° C. Serial samples were taken at the pre-determined times. Aliquots of blood samples (200 μL) were first mixed with 100 μL of water followed by 400 μL of acetonitrile. The serum samples (50 μL) were added into microtainers containing K2EDTA (Becton Dickinson, Franklin Lakes, N.J.) followed by the addition of 100 μL of acetonitrile.
# [2] = Stability of prodrug in fresh EDTA blood (rat); conditions: for Iab / IVa Formed: Rat EDTA blood; for conversion of prodrug to parent in blood containing EDTA: rat blood, 60 min (Iab) or 90 min (Ibb, Icb); for Ibb: Ibb in fresh rat EDTA blood, 37° C., n = 2
# Description: as §3
# in vitro [3] = conditions: monkey, serum
# Description: as §3
# rat hepatocytes = experiment: Hydrolysis of prodrug in hepatocytes (rat); format: in vitro ADME; conditions: rat hepatocytes, qualitative
# Description: (§1) The in vitro intrinsic clearance of Ibb in hepatocytes (Clint) was calculated as follows: Clint(μL/min/million cells)=Rate/CE where Rate is the rate of metabolism in hepatocytes (pmol/min/million cells), and CE is the concentration of Ibb in the incubation. The in vitro intrinsic clearance of Icb in hepatocytes (Clint) was calculated as follows: Clint(μL/min/million cells)=Rate/CE where Rate is the rate of metabolism in hepatocytes (pmol/min/million cells), and CE is the concentration of Icb in the incubation.
# human hepatocytes = experiment: Hydrolysis of prodrug in hepatocytes (human); format: in vitro ADME; conditions: human hepatocytes, qualitative
# Description: as §1
# in vitro [4] = conditions: rat, serum
# Description: as §3
# [5] = Stability (hydrolysis) of prodrug in fresh serum (dog); conditions: for Iab / IVa Formed: Dog Serum; for Ibb: Ibb in fresh dog serum, 37° C., n = 2
# [6] = Stability of prodrug in fresh EDTA blood (human); conditions: for Iab / IVa Formed: Human EDTA blood; for Ibb: Ibb in fresh human EDTA blood, 37° C., n = 2
# Description: as §3
# [7] = target: T1, human placental alkaline phosphatase (ALP) (Homo sapiens, UniProt P05187); experiment: Hydrolysis of prodrug in human placental ALP solutions; format: in vitro ADME; conditions: human placental ALP solution, 37°C, 120 min, read-out: t1/2 (min) of prodrug disappearance
# T1 construct: To study the hydrolysis of lab in a purified form of human ALP, Iab was incubated in human placental ALP solutions; host or cells: human placenta (inferred from the name and from 'ALP derived from humans')
# T1 sequence (P05187 23-506 limits assumed): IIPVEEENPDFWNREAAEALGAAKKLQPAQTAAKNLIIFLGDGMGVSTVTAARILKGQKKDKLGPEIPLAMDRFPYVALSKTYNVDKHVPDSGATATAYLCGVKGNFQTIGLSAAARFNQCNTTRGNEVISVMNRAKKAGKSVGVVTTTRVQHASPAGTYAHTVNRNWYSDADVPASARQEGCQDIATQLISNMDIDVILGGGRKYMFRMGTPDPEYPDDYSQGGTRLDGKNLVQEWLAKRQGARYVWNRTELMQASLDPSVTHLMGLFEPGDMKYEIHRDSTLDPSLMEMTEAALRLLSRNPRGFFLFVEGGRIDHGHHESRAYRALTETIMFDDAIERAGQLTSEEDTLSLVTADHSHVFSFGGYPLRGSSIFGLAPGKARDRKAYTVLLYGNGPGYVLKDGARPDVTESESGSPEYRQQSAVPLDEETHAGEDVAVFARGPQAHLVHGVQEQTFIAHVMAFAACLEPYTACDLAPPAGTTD
# Description: (§2) Solid human placental ALP was obtained from Sigma (P-3895, St. Louis, Mo.). […] Solutions of 100 and 10 units/L were obtained by serial dilution. Iab was incubated in the 10, 100 and 1000 units/L solutions (n=2) at 37° C. for 2 hr. The starting concentration of Iab in the incubation was 10 μM. Aliquots of 100 μL samples were taken at pre-determined times and added into K2EDTA microtainers followed by the addition of 200 μL of acetonitrile.
# as §2, with “Ibb” for “Iab”
# as §2, with “Icb” for “Iab”, “acetonitrile. The supernatant was analyzed for both Icb and IVe by LC/MS/MS.” for “acetonitrile.”
# physchem = conditions: thermodynamic from solid
# [8] = Stability (hydrolysis) of prodrug in fresh serum (human); conditions: for Iab / IVa Formed: Human Serum; for Ibb: Ibb in fresh human serum, 37° C., n = 2
# [9] = pH 7.5, ALP Activity 10 Units/L
# [10] = pH 7.5, ALP Activity 100 Units/L
# [11] = pH 7.5, ALP Activity 1000 Units/L
compound,measurement,setting,value
"COc1cnc(OC)c2c1c(C(=O)C(=O)N1CCN(C(=O)c3ccccc3)CC1)cn2COP(=O)(O)O [Iab, {3-[(4-benzoylpiperazin-1-yl)(oxo)acetyl]-4,7-dimethoxy-1H-pyrrolo[2,3-c]pyridin-1-yl}methyl dihydrogen phosphate, L-lysine salt (1:1)]",Iab / IVa Formed,"[1]; 37°C, 0 min",6.8 µM
same,Iab / IVa Formed,[1]; 15 min,5.8 µM
same,Iab / IVa Formed,[1]; 30 min,5.4 µM
same,Iab / IVa Formed,[1]; 45 min,4.9 µM
same,Iab / IVa Formed,[1]; 60 min,4.3 µM
same,Iab / IVa Formed,[1]; 90 min,3.3 µM
same,Iab / IVa Formed,"[2]; 37°C, 0 min",8.0 µM
same,Iab / IVa Formed,[2]; 20 min,8.8 µM
same,Iab / IVa Formed,[2]; 40 min,10 µM
same,Iab / IVa Formed,[2]; 60 min,10 µM
same,conversion of prodrug to parent in blood containing EDTA,[2]; 37°C,< 2% and 1.2%
same,half-life at 10 μM,in vitro [3],365 min
same,hydrolysis in the presence of hepatocytes,rat hepatocytes,hydrolyzed
same,hydrolysis in the presence of hepatocytes,human hepatocytes,hydrolyzed
same,half-life at 10 μM,in vitro [4],80 min
same,Iab / IVa Formed,"[5]; 37°C, 0 min",9.2 µM
same,Iab / IVa Formed,[5]; 15 min,9.0 µM
same,Iab / IVa Formed,[5]; 30 min,7.8 µM
same,Iab / IVa Formed,[5]; 45 min,7.8 µM
same,Iab / IVa Formed,[5]; 60 min,7.1 µM
same,Iab / IVa Formed,[5]; 90 min,6.7 µM
same,Iab / IVa Formed,[6]; 0 min,11 µM
same,Iab / IVa Formed,[6]; 15 min,11 µM
same,Iab / IVa Formed,[6]; 30 min,7.1 µM
same,Iab / IVa Formed,[6]; 45 min,9.8 µM
same,Iab / IVa Formed,[6]; 60 min,9.8 µM
same,half-life at 10 μM,[7]; [9],186 min
same,half-life at 10 μM,[7]; [10],14 min
same,half-life at 10 μM,[7]; [11],1.4 min
same,solubility,"physchem; aqueous solution, aqueous buffer",> 12000 µg/mL
same,solubility,"physchem; aqueous solution, pH 1.4, simulated gastric fluid",220 µg/mL
same,Iab / IVa Formed,"[8]; 37°C, 0 min",9.5 µM
same,Iab / IVa Formed,[8]; 15 min,9.2 µM
same,Iab / IVa Formed,[8]; 30 min,9.0 µM
same,Iab / IVa Formed,[8]; 45 min,9.6 µM
same,Iab / IVa Formed,[8]; 60 min,9.1 µM
same,Iab / IVa Formed,[8]; 90 min,9.4 µM
"O=C(C(=O)N1CCN(C(=O)c2ccccc2)CC1)c1cn(COP(=O)(O)O)c2c(-n3ccnn3)ncc(F)c12 [Ibb, [3-[(4-benzoylpiperazin-1-yl)(oxo)acetyl]-4-fluoro-7-(1H-1,2,3-triazol-1-yl)-1H-pyrrolo[2,3-c]pyridin-1-yl]methyl dihydrogen phosphate, L-lysine salt (1:1)]",Ibb,[1]; 0 min,12 µM
same,Ibb,[1]; 15 min,9.4 µM
same,Ibb,[1]; 30 min,9.2 µM
same,Ibb,[1]; 45 min,9.4 µM
same,Ibb,[1]; 60 min,9.3 µM
same,Ibb,[1]; 90 min,9.0 µM
same,Ibb,[2]; 0 min,15 µM
same,Ibb,[2]; 15 min,15 µM
same,Ibb,[2]; 30 min,18 µM
same,Ibb,[2]; 45 min,15 µM
same,Ibb,[2]; 60 min,16 µM
same,Ibb,[2]; 90 min,17 µM
same,conversion of prodrug to parent in blood containing EDTA,[2]; 37°C,< 2%
same,half-life at 15 μM,in vitro [3],15 min
same,hydrolysis in the presence of hepatocytes,rat hepatocytes,hydrolyzed
same,hydrolysis in the presence of hepatocytes,human hepatocytes,hydrolyzed
same,half-life at 15 μM,in vitro [4],704 min
same,Ibb,[5]; 0 min,13 µM
same,Ibb,[5]; 15 min,12 µM
same,Ibb,[5]; 30 min,11 µM
same,Ibb,[5]; 45 min,10 µM
same,Ibb,[5]; 60 min,10 µM
same,Ibb,[5]; 90 min,8.9 µM
same,Ibb,[6]; 0 min,16 µM
same,Ibb,[6]; 15 min,15 µM
same,Ibb,[6]; 30 min,16 µM
same,Ibb,[6]; 45 min,16 µM
same,Ibb,[6]; 60 min,16 µM
same,Ibb,[6]; 90 min,18 µM
same,conversion of prodrug to parent in blood containing EDTA,"[6]; human blood, 37°C, 60 min (Iab) or 90 min (Ibb, Icb)",< 2%
same,half-life at 10 μM,[7]; [9],198 min
same,half-life at 10 μM,[7]; [10],16 min
same,half-life at 10 μM,[7]; [11],2 min
same,solubility,"physchem; aqueous solution (pH range 1.5 to 8.7), aqueous buffer",> 11000 µg/mL
same,Ibb,[8]; 0 min,13 µM
same,Ibb,[8]; 15 min,9.0 µM
same,Ibb,[8]; 30 min,10 µM
same,Ibb,[8]; 45 min,10 µM
same,Ibb,[8]; 60 min,8.0 µM
same,Ibb,[8]; 90 min,6.5 µM

# Reference: patent publication US20150315218A1, “SALTS OF PRODRUGS OF PIPERAZINE AND SUBSTITUTED PIPERIDINE ANTIVIRAL AGENTS” (Bristol-Myers Squibb Company, priority 2004, published 2015)
